Source: ChEMBL document CHEMBL1201862, “PubChem BioAssay data set” (2004)
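These data come from cells grown in 96-well plates and exposed to compound for 48 hours at five concentrations. GI50 = concentration required for 50% inhibition of growth.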 Activity calls are given as the source filed them. Rule as the data show it: active = GI50 up to about 1.1 µM and inactive = higher.

How the values were obtained:
Test in all cases: growth of human tumour cells (NCI), 48 h
786-0 = test system: 786-0
A498 = test system: A498
A549 = test system: A549
ACHN = test system: ACHN
BT-549 = test system: BT-549
CAKI-1 = test system: CAKI-1
CCRF-CEM = test system: CCRF-CEM
COLO 205 = test system: COLO 205
DU-145 = test system: DU-145
EKVX = test system: EKVX
HCT-116 = test system: HCT-116
HCT-15 = test system: HCT-15
HL-60 = test system: HL-60
HOP-62 = test system: HOP-62
HOP-92 = test system: HOP-92
HT-29 = test system: HT-29
Hs-578T = test system: Hs-578T
IGROV-1 = test system: IGROV-1
K562 = test system: K562
KM12 = test system: KM12
M14 = test system: M14
MCF7 = test system: MCF7
MDA-MB-231 = test system: MDA-MB-231
MDA-MB-435 = test system: MDA-MB-435
MDA-N = test system: MDA-N
MOLT-4 = test system: MOLT-4
Malme-3M = test system: Malme-3M
NCI-H226 = test system: NCI-H226
NCI-H23 = test system: NCI-H23
NCI-H460 = test system: NCI-H460
NCI-H522 = test system: NCI-H522
NCI/ADR-RES = test system: NCI/ADR-RES
OVCAR-3 = test system: OVCAR-3
OVCAR-4 = test system: OVCAR-4
OVCAR-5 = test system: OVCAR-5
OVCAR-8 = test system: OVCAR-8
PC-3 = test system: PC-3
RPMI-8226 = test system: RPMI-8226
RXF 393 = test system: RXF 393
SF-268 = test system: SF-268
SF-295 = test system: SF-295
SF-539 = test system: SF-539
SK-MEL-28 = test system: SK-MEL-28
SK-MEL-2 = test system: SK-MEL-2
SK-MEL-5 = test system: SK-MEL-5
SK-OV-3 = test system: SK-OV-3
SN12C = test system: SN12C
SNB-19 = test system: SNB-19
SNB-75 = test system: SNB-75
SR = test system: SR
SW-620 = test system: SW-620
T47D = test system: T47D
U-251 = test system: U-251
UACC-257 = test system: UACC-257
UACC-62 = test system: UACC-62
UO-31 = test system: UO-31
HCC 2998 = test system: HCC 2998
TK-10 = test system: TK-10
LOX IMVI = test system: LOX IMVI

Measured: GI50

COc1cc2c(c(O)c1OC)C(O)C1CCC(=O)N1C2c1cccc2ccccc12 (stereo not given)
inactive: 786-0 > 100 µM | A498 > 100 µM | A549 99.1 µM | ACHN 82.2 µM | BT-549 > 100 µM | CAKI-1 > 100 µM | CCRF-CEM 81.7 µM | COLO 205 > 100 µM | DU-145 > 100 µM | EKVX 67.8 µM | HCT-116 > 100 µM | HL-60 > 100 µM | HOP-62 > 100 µM | HOP-92 > 100 µM | HT-29 > 100 µM | Hs-578T 48 µM | IGROV-1 > 100 µM | K562 > 100 µM | KM12 34.9 µM | M14 > 100 µM | MCF7 > 100 µM | MDA-MB-231 89.5 µM | MDA-MB-435 51.4 µM | MDA-N 76.4 µM | MOLT-4 58.2 µM | Malme-3M 36.9 µM | NCI-H226 > 100 µM | NCI-H23 > 100 µM | NCI-H460 > 100 µM | NCI-H522 27.7 µM | NCI/ADR-RES 54.6 µM | OVCAR-3 > 100 µM | OVCAR-4 65.6 µM | OVCAR-5 > 100 µM | OVCAR-8 > 100 µM | PC-3 49.7 µM | RPMI-8226 > 100 µM | RXF 393 57.9 µM | SF-268 > 100 µM | SF-295 99.8 µM | SF-539 > 100 µM | SK-MEL-28 > 100 µM | SK-MEL-2 > 100 µM | SK-MEL-5 > 100 µM | SK-OV-3 56.1 µM | SN12C > 100 µM | SNB-19 > 100 µM | SNB-75 27 µM | SR > 100 µM | SW-620 > 100 µM | T47D > 100 µM | U-251 > 100 µM | UACC-257 > 100 µM | UACC-62 > 100 µM | UO-31 91.8 µM
> 100 µM: HCT-15

CCN(CC)CCn1c(=O)c2cccnc2n2c3c(=O)n(C)c(=O)n(C)c3nc12
inactive: 786-0 > 100 µM | A549 59.4 µM | ACHN 34.8 µM | BT-549 > 100 µM | CAKI-1 67.9 µM | CCRF-CEM 64.6 µM | COLO 205 70.3 µM | DU-145 > 100 µM | EKVX > 100 µM | HCC 2998 72.4 µM | HCT-116 47.8 µM | HL-60 69 µM | HOP-62 > 100 µM | HOP-92 > 100 µM | HT-29 > 100 µM | Hs-578T > 100 µM | IGROV-1 > 100 µM | K562 > 100 µM | KM12 > 100 µM | M14 > 100 µM | MCF7 45.1 µM | MDA-MB-231 > 100 µM | MDA-MB-435 > 100 µM | MDA-N > 100 µM | MOLT-4 34.7 µM | Malme-3M 65.2 µM | NCI-H226 95.1 µM | NCI-H23 > 100 µM | NCI-H460 36.6 µM | NCI-H522 > 100 µM | NCI/ADR-RES > 100 µM | OVCAR-3 > 100 µM | OVCAR-4 > 100 µM | OVCAR-5 > 100 µM | OVCAR-8 > 100 µM | PC-3 > 100 µM | RPMI-8226 > 100 µM | RXF 393 > 100 µM | SF-268 > 100 µM | SF-295 > 100 µM | SF-539 85.1 µM | SK-MEL-28 > 100 µM | SK-MEL-2 > 100 µM | SK-MEL-5 47.1 µM | SK-OV-3 > 100 µM | SN12C > 100 µM | SNB-19 > 100 µM | SNB-75 > 100 µM | SR 38.5 µM | SW-620 76.9 µM | T47D > 100 µM | TK-10 23.2 µM | U-251 > 100 µM | UACC-257 > 100 µM | UACC-62 57 µM | UO-31 86.1 µM
11.6 µM: HCT-15

COc1cc2c(cc1OC)C(=O)/C(=C/c1cc(OC)c(OC)c(OC)c1)C2
> 100 µM: HCT-15
inactive: A498 > 100 µM | BT-549 36.9 µM | CAKI-1 > 100 µM | CCRF-CEM > 100 µM | COLO 205 > 100 µM | DU-145 > 100 µM | HL-60 > 100 µM | HOP-62 43.6 µM | HOP-92 > 100 µM | HT-29 > 100 µM | Hs-578T > 100 µM | IGROV-1 > 100 µM | K562 > 100 µM | KM12 > 100 µM | M14 96.6 µM | MCF7 > 100 µM | MDA-MB-231 66.7 µM | MDA-MB-435 > 100 µM | MDA-N > 100 µM | MOLT-4 > 100 µM | Malme-3M > 100 µM | NCI-H226 > 100 µM | NCI-H23 > 100 µM | NCI-H460 > 100 µM | NCI-H522 14.6 µM | NCI/ADR-RES 23.7 µM | OVCAR-3 > 100 µM | OVCAR-4 > 100 µM | OVCAR-5 > 100 µM | OVCAR-8 > 100 µM | PC-3 > 100 µM | RPMI-8226 > 100 µM | RXF 393 > 100 µM | SF-295 > 100 µM | SK-MEL-28 > 100 µM | SK-MEL-2 > 100 µM | SK-MEL-5 > 100 µM | SK-OV-3 > 100 µM | SN12C > 100 µM | SNB-19 > 100 µM | SNB-75 > 100 µM | SR > 100 µM | T47D 90.2 µM | U-251 > 100 µM | UACC-62 > 100 µM | UO-31 > 100 µM

O=C(O)COc1cc(-c2ccccc2)nc2ccc(F)cc12
> 100 µM: HCT-15
inactive: 786-0 > 100 µM | A498 > 100 µM | A549 > 100 µM | ACHN > 100 µM | BT-549 > 100 µM | CAKI-1 > 100 µM | CCRF-CEM > 100 µM | COLO 205 > 100 µM | DU-145 > 100 µM | EKVX > 100 µM | HCC 2998 98.6 µM | HCT-116 > 100 µM | HL-60 > 100 µM | HOP-62 > 100 µM | HOP-92 > 100 µM | HT-29 > 100 µM | Hs-578T > 100 µM | IGROV-1 > 100 µM | K562 > 100 µM | KM12 > 100 µM | LOX IMVI > 100 µM | M14 > 100 µM | MCF7 > 100 µM | MDA-MB-231 > 100 µM | MDA-MB-435 > 100 µM | MDA-N > 100 µM | MOLT-4 > 100 µM | Malme-3M > 100 µM | NCI-H226 > 100 µM | NCI-H23 > 100 µM | NCI-H460 > 100 µM | NCI-H522 58.1 µM | NCI/ADR-RES > 100 µM | OVCAR-3 > 100 µM | OVCAR-4 > 100 µM | OVCAR-5 > 100 µM | OVCAR-8 > 100 µM | PC-3 > 100 µM | RPMI-8226 > 100 µM | SF-268 > 100 µM | SF-295 > 100 µM | SF-539 > 100 µM | SK-MEL-28 > 100 µM | SK-MEL-2 > 100 µM | SK-MEL-5 > 100 µM | SK-OV-3 > 100 µM | SN12C > 100 µM | SNB-19 > 100 µM | SNB-75 > 100 µM | SR > 100 µM | SW-620 > 100 µM | T47D > 100 µM | U-251 > 100 µM | UACC-257 > 100 µM | UACC-62 > 100 µM | UO-31 70 µM
active: TK-10 0.0261 µM

CC(=O)O[C@H]1C[C@H]2[C@@H]([C@H](OC(C)=O)C[C@@H]3CC4(CC[C@@]32C)OOC2(CCCCC2)OO4)[C@@H]2CC[C@H]([C@H](C)CCC(N)=O)[C@@]12C
active: CAKI-1 0.63 µM | HOP-62 0.817 µM | IGROV-1 0.134 µM | LOX IMVI 1 µM | MOLT-4 0.881 µM | NCI-H23 1 µM | NCI-H522 0.55 µM | RPMI-8226 0.726 µM | SR 0.0787 µM
inactive: 786-0 1.81 µM | A498 6.64 µM | A549 1.19 µM | ACHN 1.63 µM | BT-549 2.07 µM | CCRF-CEM 1.28 µM | COLO 205 1.91 µM | DU-145 1.93 µM | EKVX 1.49 µM | HCC 2998 3.63 µM | HCT-116 3.13 µM | HL-60 1.69 µM | HT-29 3.4 µM | Hs-578T 5.47 µM | K562 2.05 µM | KM12 1.71 µM | M14 3.33 µM | MCF7 2.61 µM | MDA-MB-231 1.95 µM | MDA-MB-435 1.65 µM | MDA-N 1.95 µM | Malme-3M 2.76 µM | NCI-H226 2.46 µM | NCI-H460 1.93 µM | NCI/ADR-RES 2.2 µM | OVCAR-3 1.54 µM | OVCAR-4 1.78 µM | OVCAR-5 2.34 µM | OVCAR-8 2.14 µM | PC-3 1.62 µM | RXF 393 2.76 µM | SF-268 1.66 µM | SF-295 3.67 µM | SF-539 3.13 µM | SK-MEL-28 8.93 µM | SK-MEL-2 1.78 µM | SK-MEL-5 2.15 µM | SK-OV-3 11.6 µM | SN12C 2.14 µM | SNB-19 5.85 µM | SNB-75 2.28 µM | SW-620 2.42 µM | T47D 1.63 µM | TK-10 2.6 µM | U-251 1.51 µM | UACC-257 5.62 µM | UACC-62 2.7 µM
2 µM: HCT-15
